Read-outs that look alike come from different tables or passages of the source.
Assays:
[1] = system: multiple myeloma cell line U266B1; assay: U266 Cell Viability Assay; type: cell-based; details: Homo sapiens
Summary of the method: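 Viability is measured as luciferase signal from CellTiter-Glo following a 48-hour incubation with compound at 37° C. under 5% CO2. Where structures lack drawn stereochemistry, values refer to stereoisomer mixtures.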

[2] = system: PD1-ss+10aa/Gaussia Luciferase; assay: Dox-Induced PD1-ss-Gluc Assay; type: cell-based
Summary of the method: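 Compounds were added in DMSO/media with doxycycline and incubated at 37 °C, 5% CO2, on 293 T-REx cells plated one day earlier. These cells stably express, under tetracycline-regulated control, a Gaussia luciferase fused to the PD1 signal peptide plus 10 residues. Structures drawn without stereochemistry were tested as stereoisomer mixtures.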

[3] = Liver Microsome Stability Assay, human; type: in vitro ADME; details: human liver microsomes 1.0 mg/mL, 1.0 uM compound, 37° C., 1 mM NADPH
Summary of the method: (§1)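 Incubations at 37° C contain 1.0 mg/mL liver microsomes and 1.0 uM compound, with 1 mM NADPH present or absent. Time points are 0 and 30 minutes.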

[4] = system: multiple myeloma cell line NCI-H929; assay: H929 Cell Viability Assay; type: cell-based, human; details: Homo sapiens
Summary of the method: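 Viability is scored by CellTiter-Glo luminescence following a 48-hour treatment at 37° C. Data for structures shown without stereochemistry refer to stereoisomer mixtures.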

[5] = system: HER3-ss+4aa/Gaussia Luciferase; assay: Dox-Inducible Her3-ss-Gluc Assay; type: cell-based
From the text: Flp-In 293 T-REx™ cells were transfected with pcDNA™5/FRT/TO plasmid inserted with cDNA encoding Gaussia Luciferase fused to the 3′ end of cDNA encoding HER3 signal sequence plus 4 amino acids (N-[…]-C) (SEQ ID NO: 2). Transfected cells were selected for resistance to the selectable markers Hygromycin and Blasticidin to create a stable cell line that contained the HER3-ss+4aa/Gaussia Luciferase cDNA insert whose expression was regulated under the T-REx™ system. The day before assay, cells were trypsinized and plated in 384-well tissue culture plates. The next day, compound dilutions in DMSO/media containing doxycycline were added to the wells and incubated at 37° C., 5% CO2.
(§2) For chemical structures that include one or more stereoisomers, but are illustrated without indicating stereochemistry, the assay data refers to a mixture of stereoisomers.

[6] = Liver Microsome Stability Assay, mouse; type: in vitro ADME; details: mouse liver microsomes 1.0 mg/mL, 1.0 uM compound, 37° C., 1 mM NADPH
Summary of the method: as §1

[7] = Liver Microsome Stability Assay, rat; type: in vitro ADME; details: rat liver microsomes 1.0 mg/mL, 1.0 uM compound, 37° C., 1 mM NADPH
Summary of the method: as §1

[8] = system: IL-2-FL/Gaussia Luciferase; assay: Dox Inducible IL2-FL-Gluc Assay; type: cell-based
Summary of the method: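 Doxycycline induces an IL-2(1-153)–Gaussia luciferase fusion in a stable Flp-In 293 T-REx line. Compound exposure runs alongside induction at 37° C.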

[9] = Liver Microsome Stability Assay, monkey; type: in vitro ADME; details: monkey liver microsomes 1.0 mg/mL, 1.0 uM compound, 37° C., 1 mM NADPH
Summary of the method: as §1

[10] = system: TNFα-FL/Gaussia Luciferase; assay: Dox Induced TNFα-FL-Gluc Assay; type: cell-based
From the text: Flp-In 293 T-REx™ cells were transfected with pcDNA™5/FRT/TO plasmid inserted with cDNA encoding Gaussia Luciferase fused to the 3′ end of cDNA encoding full length TNFα (amino acids 1-233). Transfected cells were selected for resistance to the selectable markers Hygromycin and Blasticidin to create a stable cell line that contained the TNFα-FL/Gaussia Luciferase cDNA insert whose expression was regulated under the T-REx™ system. The day before assay, cells were trypsinized and plated in 384-well tissue culture plates. The next day, compound dilutions in DMSO/media containing doxycycline were added to the wells and incubated at 37° C., 5% CO2.
as §2

[11] = U-266, U266B1 cells, 48 hours, Celltiter-Glo, read-out: 48 hr U266 Viability Celltiter-Glo: Mean EC50
[12] = Flp-In 293 T-REx cells, 24 hours with doxycycline; Table 3; read-out: 24 hr Dox Inducible PD1ssGluc 293FRT/TO: Mean IC50
[13] = NCI-H929 cells, 48 hours, Celltiter-Glo, read-out: 48 hr H929 Viability Celltiter-Glo: Mean EC50
[14] = Flp-In 293 T-REx cells, 24 hours with doxycycline; Table 3; read-out: 24 hr Dox Inducible Her3(ss + 4)Gluc 293FRT/TO: Mean IC50
[15] = Flp-In 293 T-REx cells, 24 hours with doxycycline; Table 3; read-out: 24 hr Dox Inducible IL2FLGluc 293FRT/TO: Mean IC50
[16] = ratio of IC50s IL2/PD1; Table 3
[17] = Flp-In 293 T-REx cells, 24 hours with doxycycline; Table 3; read-out: 24 hr Dox Inducible TNFaFLGluc 293FRT/TO: Mean IC50
[18] = ratio of IC50s TNF/PD1; Table 3

Structure (SMILES) | EC50 [1, 11] | IC50 [2, 12] | Liver Microsome Stability (Multiple Species): Human - % Remaining after 30 min w/ NADPH (%) [3] | EC50 [4, 13] | IC50 [5, 14] | Liver Microsome Stability (Multiple Species): Mouse - % Remaining after 30 min w/ NADPH (%) [6] | Liver Microsome Stability (Multiple Species): Rat - % Remaining after 30 min w/ NADPH (%) [7] | IC50 [8, 15] | 24 hr Dox Inducible IL2FLGluc 293FRT/TO: IL2/PD1 [8, 16] | Liver Microsome Stability (Multiple Species): Monkey - % Remaining after 30 min w/ NADPH (%) [9] | IC50 [10, 17] | 24 hr Dox Inducible TNFaFLGluc 293FRT/TO: TNF/PD1 [10, 18] | EC50 ([1]; U-266, 48 h, read-out: 48 hr U266 Viability Celltiter-Glo: Mean EC50 (nM)) | IC50 ([2]; read-out: 24 hr Dox Inducible PD1ssGluc 293FRT/TO: Mean IC50; Flp-In 293 T-REx cells, 24 hours with doxycycline; Table 3) | EC50 ([4]; NCI-H929, 48 h, read-out: 48 hr H929 Viability Celltiter-Glo: Mean EC50 (nM)) | IC50 ([5]; read-out: 24 hr Dox Inducible Her3(ss + 4)Gluc 293FRT/TO: Mean IC50; Flp-In 293 T-REx cells, 24 hours with doxycycline; Table 3) | IC50 ([8]; read-out: 24 hr Dox Inducible IL2FLGluc 293FRT/TO: Mean IC50; Flp-In 293 T-REx cells, 24 hours with doxycycline; Table 3) | IC50 ([10]; read-out: 24 hr Dox Inducible TNFaFLGluc 293FRT/TO: Mean IC50; Flp-In 293 T-REx cells, 24 hours with doxycycline; Table 3)
C/C(=C\c1ccc(C)c(F)n1)c1csc(NC(=O)c2cccn2Cc2ccnc(F)c2)n1 [Compound B7, (E)-N-(4-(1-(6-fluoro-5-methylpyridin-2-yl)prop-1-en-2-yl)thiazol-2-yl)-1-((2-fluoropyridin-4-yl)methyl)-1H-pyrrole-2-carboxamide] | > 25000 nM | 0.03 µM | 4% | 8090 nM | 0.184 µM | 23% | 13% | 0.499 µM | 17 | 6% | 3.98 µM | 134 |  |  |  |  |  | 
O=C(Nc1nc(/C=C/c2ccc(Cl)cn2)cs1)c1cccn1Cc1ccnc(F)c1 [Compound B8, (E)-N-(4-(2-(5-chloropyridin-2-yl)vinyl)thiazol-2-yl)-1-((2-fluoropyridin-4-yl)methyl)-1H-pyrrole-2-carboxamide] | > 25000 nM | 0.024 µM | 22% | > 25000 nM | 1.18 µM | 11% | 1% | 1.68 µM | 69 | 4% | 11.2 µM | 462 |  |  |  |  |  | 
O=C(Nc1nc(/C=C/[C@H]2CC[C@@H](C(F)(F)F)CC2)cs1)c1cccn1Cc1ccncc1 [Compound B9, 1-(pyridin-4-ylmethyl)-N-(4-((E)-2-((1s,4s)-4-(trifluoromethyl)cyclohexyl)vinyl)thiazol-2-yl)-1H-pyrrole-2-carboxamide] | 20000 nM | 0.161 µM | 6% | 6260 nM | 0.298 µM | 6% | 4% | 0.748 µM | 5 | 1% | 3.97 µM | 25 |  |  |  |  |  | 
O=C(Nc1nc(/C=C/[C@H]2CC[C@H](C(F)(F)F)CC2)cs1)c1cccn1Cc1ccncc1 [Compound B10, 1-(pyridin-4-ylmethyl)-N-(4-((E)-2-((1r,4r)-4-(trifluoromethyl)cyclohexyl)vinyl)thiazol-2-yl)-1H-pyrrole-2-carboxamide] | > 25000 nM | 0.041 µM | 38% | 5810 nM | 0.086 µM | 49% | 5% | 0.249 µM | 6 | 11% | 1.01 µM | 25 |  |  |  |  |  | 
Cc1sc(NC(=O)c2cccn2Cc2ccnc(F)c2)nc1/C=C/c1cn(C(C)C)cn1 [Compound B23, (E)-1-((2-fluoropyridin-4-yl)methyl)-N-(4-(2-(1-isopropyl-1H-imidazol-4-yl)vinyl)-5-methylthiazol-2-yl)-1H-pyrrole-2-carboxamide] |  |  | <1% |  |  | 16% | 19% |  | >420 | 1% |  | >422 | > 25000 nM | 0.059 µM | > 25000 nM | 3.39 µM | > 25 µM | > 25 µM
C/C(=C\c1cn(C(C)C)cn1)c1csc(NC(=O)c2cccn2Cc2ccnc(F)c2)n1 [Compound B24, (E)-1-((2-fluoropyridin-4-yl)methyl)-N-(4-(1-(1-isopropyl-1H-imidazol-4-yl)prop-1-en-2-yl)thiazol-2-yl)-1H-pyrrole-2-carboxamide] | 15300 nM | 0.54 µM | 1% | 13600 nM | > 25 µM | 3% | 1% | > 25 µM | >46 | <1% | > 25 µM | >46 |  |  |  |  |  | 

Source: patent US20250171434A1, “SEC61 INHIBITORS AND USE THEREOF” (KEZAR LIFE SCIENCES, INC., priority 2022, published 2025)
